Measurements: patent EP2140864A2 (H. Lundbeck A/S, priority 2001, dated 2002)
Where two headings read alike, the source gives them in different places.

What was measured:
[1] = molecular target: 5HT transporter (Rattus norvegicus, UniProt P31652); assay: Binding at native 5HT transporter
Procedure: (§1) The binding properties of the compounds of the present invention were evaluated at one or more cloned receptors or native, tissue-derived transporters, using protocols described below.
(§2) The methods to determine binding affinity at native transporters are described in the following publications: 5HT transporter and NE transporter (Owens et al., 1997), and DA transporter (Javitch et al, 1984).
(§3) Binding data were analyzed using nonlinear regression and statistical techniques available in the GraphPAD Prism package (San Diego, CA). Enzymatic assay data were derived from a standard curve of reference compound data.

[2] = molecular target: DA transporter (Rattus norvegicus, UniProt P23977); assay: Binding at native DA transporter
Procedure: as §1, §2, §3

[3] = molecular target: T1, human dopamine D1 (Homo sapiens, UniProt P21728); assay: Radioligand binding, dopamine D1 receptor
T1 construct: purchased BioSignal, Inc. (Montreal, Canada); host or cells: membranes of cells expressing the receptor
Text: (§4) Other receptors: Cell membranes expressing human dopamine D1, D2, D4 and rat D3 receptors were purchased through BioSignal, Inc. (Montreal, Canada). Binding assays using the histamine H1 receptor; dopamine receptors; and α1A, α1E, and α2 adrenergic receptors may be carried out according to the procedures described in U.S. Patent No. 5,780,485, the disclosure of which is hereby incorporated by reference in its entirety into this application. Binding assays using the dopamine D5 receptor may be carried out according to the procedures described in U.S. Patent No. 5,882,855, the disclosure of which is hereby incorporated by reference in its entirety into this application. Binding assays for the human α1D adrenergic receptor may be carried out according to the procedures described in U.S. Patent No. 6,156,518, the disclosure of which is hereby incorporated by reference in its entirety into this application.
as §3

[4] = molecular target: T2, human 5HT1B (Homo sapiens, UniProt P28222); assay: Radioligand binding, 5HT1B receptor ([3H]-serotonin)
T2 construct: expressed in transfected cells
Procedure: (§5) Human 5HT1B, 5HT1D, 5HT1E, 5HT1F, and 5HT7 Receptors: The cell lysates of LM(tk-) clonal cell line stably transfected with the genes encoding each of these 5HT receptor-subtypes were prepared as described above. Cell membranes were suspended in 50mM Tris-HCl buffer (pH 7.4 at 37°C) containing 10 mM MgCl2, 0.2 mM EDTA, 10 µM pargyline, and 0.1% ascorbate. […] Nonspecific binding was determined in the presence of 10 µM serotonin. The bound radioligand was separated by filtration through GF/B filters using a cell harvester.
as §3

[5] = molecular target: T3, dopamine D5 receptor (Homo sapiens, UniProt P21918); assay: Radioligand binding, dopamine D5 receptor
T3 construct: expressed in transfected cells
Text: as §4, §3

[6] = molecular target: T4, human 5HT1D (Homo sapiens, UniProt P28221); assay: Radioligand binding, 5HT1D receptor ([3H]-serotonin)
T4 construct: expressed in transfected cells
Procedure: as §5, §3

[7] = molecular target: T5, Human 5HT2A Receptor (Homo sapiens, UniProt P28223); assay: Radioligand binding, 5HT2A receptor ([3H]ketanserin)
T5 construct: expressed in transfected cells; host or cells: COS-7 cells (pCEXV-3 vector, DEAE-dextran)
Procedure: Human 5HT2A Receptor: The coding sequence of the human 5HT2A receptor was obtained from a human brain cortex cDNA library, and cloned into the cloning site of pCEXV-3 eukaryotic expression vector. This construct was transfected into COS-7 cells by the DEAE-dextran method (Cullen, 1987). Cells were harvested after 72 hours and lysed by sonication in 5 mM Tris-HCl, 5 mM EDTA, pH 7.5. The cell lysates were subjected to centrifugation at 1000 rpm for 5 minutes at 4°C, and the supernatant was subjected to centrifugation at 30,000 x g for 20 minutes at 4°C. The pellet was suspended in 50 mM Tris-HCl buffer (pH 7.7 at room temperature) containing 10 mM MgS04, 0.5 mM EDTA, and 0.1% ascorbate. The affinity of compounds at 5HT2A receptors were determined in equilibrium competition binding assays using [^3H]ketanserin (1 nM). Nonspecific binding was defined by the addition of 10 µM mianserin. The bound radioligand was separated by filtration through GF/B filters using a cell harvester.
as §3

[8] = Table 7; native transporter, head prints r (rat); read-out: r5HT Uptk Ki
[9] = Table 8; Ki r5HT Uptk divided by Ki hGAL3
[10] = Table 7; native transporter, head prints r (rat); read-out: rDA Uptk Ki
[11] = Table 8; Ki rDA Uptk divided by Ki hGAL3
[12] = Table 10; Ki hD1 divided by Ki hGAL3
[13] = Table 8; Ki h5HT1B divided by Ki hGAL3
[14] = Table 10; Ki hD5 divided by Ki hGAL3
[15] = Table 8; Ki h5HT1D divided by Ki hGAL3
[16] = Table 8; Ki h5HT2A divided by Ki hGAL3

T2 sequence (P28222 whole entry): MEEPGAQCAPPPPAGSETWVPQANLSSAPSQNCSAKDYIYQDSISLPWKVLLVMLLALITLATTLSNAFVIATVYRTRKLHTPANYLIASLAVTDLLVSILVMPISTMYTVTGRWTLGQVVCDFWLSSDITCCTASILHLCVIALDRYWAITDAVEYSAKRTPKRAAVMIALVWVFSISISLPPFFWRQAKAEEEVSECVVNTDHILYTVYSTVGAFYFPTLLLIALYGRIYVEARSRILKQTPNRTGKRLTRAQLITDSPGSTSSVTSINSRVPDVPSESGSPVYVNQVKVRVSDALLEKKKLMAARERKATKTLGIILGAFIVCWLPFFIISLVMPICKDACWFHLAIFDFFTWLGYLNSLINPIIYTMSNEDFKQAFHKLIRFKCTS
T5 sequence (P28223 whole entry): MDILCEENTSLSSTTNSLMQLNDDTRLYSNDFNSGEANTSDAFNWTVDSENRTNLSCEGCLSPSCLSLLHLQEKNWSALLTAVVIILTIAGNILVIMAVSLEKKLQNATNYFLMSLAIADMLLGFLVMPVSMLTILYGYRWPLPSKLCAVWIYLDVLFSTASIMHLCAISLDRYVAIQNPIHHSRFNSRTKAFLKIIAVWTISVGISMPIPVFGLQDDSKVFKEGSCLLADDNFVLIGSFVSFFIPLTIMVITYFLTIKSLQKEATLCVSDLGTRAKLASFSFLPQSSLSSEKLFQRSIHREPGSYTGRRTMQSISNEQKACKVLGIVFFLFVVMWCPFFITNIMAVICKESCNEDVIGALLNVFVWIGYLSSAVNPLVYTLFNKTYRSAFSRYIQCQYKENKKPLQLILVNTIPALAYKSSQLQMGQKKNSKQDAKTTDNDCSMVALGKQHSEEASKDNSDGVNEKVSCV
Sequence of 5HT transporter (P31652 whole entry): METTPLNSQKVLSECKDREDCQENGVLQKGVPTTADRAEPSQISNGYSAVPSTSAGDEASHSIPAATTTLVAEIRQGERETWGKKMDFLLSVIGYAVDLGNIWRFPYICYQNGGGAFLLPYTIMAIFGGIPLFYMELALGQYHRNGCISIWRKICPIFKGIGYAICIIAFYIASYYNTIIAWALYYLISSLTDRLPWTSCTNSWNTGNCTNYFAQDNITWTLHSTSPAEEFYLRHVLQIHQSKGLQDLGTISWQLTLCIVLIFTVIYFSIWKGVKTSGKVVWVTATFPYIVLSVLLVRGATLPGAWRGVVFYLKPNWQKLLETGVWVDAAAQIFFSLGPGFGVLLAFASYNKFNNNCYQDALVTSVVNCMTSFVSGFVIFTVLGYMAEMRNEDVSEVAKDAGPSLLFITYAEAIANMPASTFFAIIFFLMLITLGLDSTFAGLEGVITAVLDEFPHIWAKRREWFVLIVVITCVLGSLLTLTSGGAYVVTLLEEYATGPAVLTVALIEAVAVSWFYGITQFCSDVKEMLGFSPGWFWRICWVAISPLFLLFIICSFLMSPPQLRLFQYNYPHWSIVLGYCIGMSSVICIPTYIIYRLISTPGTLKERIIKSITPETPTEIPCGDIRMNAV
T1 sequence (P21728 whole entry): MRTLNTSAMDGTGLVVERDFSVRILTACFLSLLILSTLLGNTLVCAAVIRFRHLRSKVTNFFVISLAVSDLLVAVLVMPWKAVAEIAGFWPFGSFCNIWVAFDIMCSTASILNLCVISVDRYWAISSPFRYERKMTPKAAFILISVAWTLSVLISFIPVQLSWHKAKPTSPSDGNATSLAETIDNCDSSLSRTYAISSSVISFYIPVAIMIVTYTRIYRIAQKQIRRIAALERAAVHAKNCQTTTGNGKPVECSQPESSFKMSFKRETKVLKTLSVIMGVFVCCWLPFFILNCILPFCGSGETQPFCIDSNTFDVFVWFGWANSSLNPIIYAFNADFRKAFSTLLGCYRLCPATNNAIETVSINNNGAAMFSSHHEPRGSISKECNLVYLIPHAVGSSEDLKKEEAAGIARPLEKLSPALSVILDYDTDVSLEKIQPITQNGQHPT
T4 sequence (P28221 whole entry): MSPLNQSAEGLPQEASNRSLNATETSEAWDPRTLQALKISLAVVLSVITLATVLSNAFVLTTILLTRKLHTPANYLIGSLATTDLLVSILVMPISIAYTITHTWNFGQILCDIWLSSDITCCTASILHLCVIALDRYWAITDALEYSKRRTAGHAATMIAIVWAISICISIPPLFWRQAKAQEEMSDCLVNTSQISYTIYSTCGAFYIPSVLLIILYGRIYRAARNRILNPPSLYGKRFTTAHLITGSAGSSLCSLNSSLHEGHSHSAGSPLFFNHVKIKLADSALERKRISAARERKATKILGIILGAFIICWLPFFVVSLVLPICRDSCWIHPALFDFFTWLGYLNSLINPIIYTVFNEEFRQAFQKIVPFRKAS
T3 sequence (P21918 whole entry): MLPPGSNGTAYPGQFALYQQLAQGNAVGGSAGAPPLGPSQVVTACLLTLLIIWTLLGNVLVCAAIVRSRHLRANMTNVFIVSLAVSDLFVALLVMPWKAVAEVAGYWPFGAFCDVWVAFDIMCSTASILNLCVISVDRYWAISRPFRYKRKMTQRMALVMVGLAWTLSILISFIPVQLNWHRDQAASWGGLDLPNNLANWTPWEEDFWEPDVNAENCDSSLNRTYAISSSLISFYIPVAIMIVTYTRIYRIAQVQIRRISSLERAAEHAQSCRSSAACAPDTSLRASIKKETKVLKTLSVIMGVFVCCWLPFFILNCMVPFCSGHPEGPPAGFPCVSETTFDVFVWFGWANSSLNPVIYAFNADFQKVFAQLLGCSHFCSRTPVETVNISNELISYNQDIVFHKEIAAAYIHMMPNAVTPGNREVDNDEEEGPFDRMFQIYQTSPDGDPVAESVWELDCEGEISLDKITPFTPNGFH
Sequence of DA transporter (P23977 whole entry): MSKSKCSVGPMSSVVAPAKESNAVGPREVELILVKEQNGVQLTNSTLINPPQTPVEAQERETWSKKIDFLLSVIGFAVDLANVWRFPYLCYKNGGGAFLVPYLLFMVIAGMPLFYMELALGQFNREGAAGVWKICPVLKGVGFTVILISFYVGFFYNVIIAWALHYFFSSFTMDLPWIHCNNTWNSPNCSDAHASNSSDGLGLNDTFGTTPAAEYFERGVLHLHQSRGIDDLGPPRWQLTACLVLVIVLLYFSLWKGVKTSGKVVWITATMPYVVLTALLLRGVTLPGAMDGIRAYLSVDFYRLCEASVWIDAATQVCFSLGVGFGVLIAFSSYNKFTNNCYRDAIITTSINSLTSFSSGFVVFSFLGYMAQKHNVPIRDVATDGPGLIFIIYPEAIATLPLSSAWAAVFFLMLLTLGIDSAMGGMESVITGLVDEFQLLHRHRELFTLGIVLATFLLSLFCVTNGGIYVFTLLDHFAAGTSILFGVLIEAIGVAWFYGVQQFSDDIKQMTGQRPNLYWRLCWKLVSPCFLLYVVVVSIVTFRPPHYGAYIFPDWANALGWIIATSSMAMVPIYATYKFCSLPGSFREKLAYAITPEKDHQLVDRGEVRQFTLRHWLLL

| Structure (SMILES) | Ki [1, 8] [nM] | selectivity ratio r5HT Uptk [1, 9] | Ki [2, 10] [nM] | selectivity ratio rDA Uptk [2, 11] | Ki ([3]; Table 9; read-out: hD1 Ki) [nM] | selectivity ratio hD1 [3, 12] | Ki ([4]; Table 7; read-out: h5HT1B Ki) [nM] | selectivity ratio h5HT1B [4, 13] | Ki ([5]; Table 9; read-out: hD5 Ki) [nM] | selectivity ratio hD5 [5, 14] | Ki ([6]; Table 7; read-out: h5HT1D Ki) [nM] | selectivity ratio h5HT1D [6, 15] | Ki ([7]; Table 7; read-out: h5HT2A Ki) [nM] | selectivity ratio h5HT2A [7, 16] | also measured |
| --- | --- | --- | --- | --- | --- | --- | --- | --- | --- | --- | --- | --- | --- | --- | --- |
| Cc1ccc(Nc2cc(N3CCCCC3)nc(N(C)CCc3c[nH]c4ccccc34)n2)cc1 [Example 11] | 1590 | 18 | 5430 | >30 | 79 | 0.9 | 101 | 1 | 64 | 0.7 | 102 | 1 | 6710 | >30 | – |
| CN(CCc1c[nH]c2ccccc12)c1nc(Nc2ccc(F)c(F)c2)cc(N2CCCCC2)n1 [Example 15] | 1740 | 24 | 24500 | >100 | 344 | 5 | 487 | 7 | 78 | 1 | 1270 | 17 | 11300 | >100 | – |
| COc1cccc(Nc2cc(N3CCCCC3)nc(N(C)CCc3c[nH]c4ccccc34)n2)c1 [Example 17] | 719 | 8 | 27200 | >100 | 516 | 6 | 407 | 5 | 89 | 1 | 1030 | 12 | 7160 | >30 | – |
| Cc1ccc(Nc2cc(N3CCCCC3)nc(N(C)CCc3ccccc3)n2)cc1 [Example 22] | 8480 | >100 | 7480 | >100 | 128 | 5 | 1980 | >30 | 63 | 2 | 1850 | >30 | 20700 | >100 | – |
| Cc1ccc(Nc2cc(N3CCCCC3)nc(N3CCN(c4ncccc4C(F)(F)F)CC3)n2)cc1 [Example 34] | 37500 | >100 | 3900 | >100 | 290 | 13 | 1060 | >30 | 111 | 5 | 2980 | >100 | – | >100 | – |
| COC[C@@H]1[C@@H](c2ccccc2)OCCN1c1nc(Nc2ccc(C)cc2)cc(N2CCCCC2)n1 [Example 49] | – | >100 | – | 10 | – | 18 | – | >30 | – | 2 | – | >30 | – | >100 | Ki ([1]; read-out: r5HT Uptk Ki; Table 7; native transporter, head prints r (rat)): 40700 nM; Ki ([2]; read-out: rDA Uptk Ki; Table 7; native transporter, head prints r (rat)): 2010 nM; Ki ([3]; read-out: hD1 Ki; Table 9): 3780 nM; Ki ([4]; read-out: h5HT1B Ki; Table 7): 8450 nM; Ki ([5]; read-out: hD5 Ki; Table 9): 328 nM; Ki ([6]; read-out: h5HT1D Ki; Table 7): 16900 nM; Ki ([7]; read-out: h5HT2A Ki; Table 7): > 50000 nM |
| CN(C)c1cc(Nc2ccc(Cl)c(Cl)c2)nc(Nc2ccccc2)n1 [Example 60] | 25300 | >100 | 14500 | >100 | 600 | 7 | 5460 | >30 | 538 | 6 | 9200 | >100 | 26100 | >100 | – |
| Cc1ccc(Nc2cc(N(C)C)nc(N(C)CCc3c[nH]c4ccccc34)n2)cc1 [Example 77] | 821 | 10 | 2790 | >30 | 60 | 0.8 | 365 | 5 | 122 | 2 | 716 | 9 | 2240 | 28 | – |
| O=C1C(=Nc2cccc(C(F)(F)F)c2)c2ccccc2N1c1ccccc1 [Example 92, 1-PHENYL-3- [[3-(TRIFLUOROMETHYL)PHENYL]IMINO]-1,3-DIHYDRO-2H-INDOL-2-ONE] | – | >100 | – | >100 | – | >100 | – | >100 | – | >100 | – | >100 | – | >100 | – |
| O=C1C(=Nc2cccc(Cl)c2)c2ccccc2N1c1ccccc1 [Example 94, 3-[(3-CHLOROPHENYL)IMINO]-1-PHENYL-1,3-DIHYDRO-2H-INDOL-2-ONE] | 13000 | >100 | 2200 | >130 | 2150 | >30 | 3350 | >30 | 727 | 15 | 10800 | >100 | > 50000 | >100 | – |
